# Results reported in paper PMC6815936, “A Pan-Cyclophilin Inhibitor, CRV431, Decreases Fibrosis and Tumor Development in Chronic Liver Disease Models” (The Journal of Pharmacology and Experimental Therapeutics, 2019).
# Where two headings read alike, the source gives them in different places. Square brackets hold non-standard residues; d marks the D form. Peptide text beside a SMILES is read from it. NMeThr(4R-Me,4-(CH2)6NHAc) = CN[C@H](C(=O)O)[C@H](O)[C@H](C)CCCCCCNC(C)=O; NMeL = CN[C@@H](CC(C)C)C(=O)O; NMeV = CN[C@H](C(=O)O)C(C)C; dNMeA = CN[C@H](C)C(=O)O; Abu = CC[C@H](N)C(=O)O
# What was measured:
# [1] = system: NFAT promoter luciferase reporter, Jurkat cells; assay: NFAT luciferase reporter assay in Jurkat cells; type: cell-based, human; conditions: for IC50: 18 hours, read-out: NFAT–Luc IC50; for NFAT–Luc IC50 Fold Difference: CRV431 vs CsA
# Procedure: (§1) The luciferase reporter assays employed Jurkat cells stably transfected with gene constructs consisting of a luciferase gene plus human nuclear factor of activated T cells (NFAT) or interleukin-2 (IL-2) promoter elements (J1621 and J1651; Promega). The NFAT construct contained a DNA binding site only for NFAT, whereas the IL-2 construct contained binding sites for NFAT, nuclear factor κ-light-chain-enhancer of activated B cells, and activating protein-1 transcription factors. Cells were cultured in 96-well plates at 100,000 cells/well in RPMI 1640 medium (11875-093; Thermo Fisher) supplemented with 5% FBS (12483020; Thermo Fisher). Cells were activated either by precoating high protein-binding plates with 3 µg/ml anti-CD3 (UCHT clone) and anti-CD28 (CD28.2 clone) (BioLegend LEAF antibodies) or by adding phorbol myristate acetate (PMA; P8139; Sigma-Aldrich) to 15 ng/ml and A23187 ionophore (C7522; Sigma-Aldrich) to 0.75 µM. […] Cells were harvested after 18 hours of incubation, and luciferase was quantified with Promega Bio-Glo reagent (G7940; Promega) and measurement with a luminescence plate reader. Data were normalized to DMSO controls (100% stimulation) and to wells without antibody or PMA plus A23187 stimulation.
# [2] = system: IL-2 promoter luciferase reporter, Jurkat cells; assay: IL-2 luciferase reporter assay in Jurkat cells; type: cell-based, human; conditions: for IC50: 18 hours, read-out: IL-2–Luc IC50; for IL-2–Luc IC50 Fold Difference: CRV431 vs CsA
# Procedure: as §1
# [3] = system: six human cell types; assay: Cytotoxicity analysis, resazurin viability assay
# Procedure: CRV431 cytotoxicity was evaluated in cell culture with six human cell types: Jurkat E6.1 lymphocyte cell line (88042803, person; Sigma-Aldrich), HepaRG hepatocyte cell line (HPRGC10, person; Life Technologies), primary renal epithelial cells (CC-2556, unknown gender; Lonza), primary dermal fibroblasts (CC-2511, person; Lonza), primary bronchial smooth muscle cells (CC-2576, person; Lonza), and primary umbilical vein endothelial cells (CC-2519, person; Lonza). Jurkat cells (suspension cell type) were plated at 35,000 cells/well in 96-well plates. All other cell types (adherent cell types) were plated 2500–10,000 cells/well (adherent cell types) in GelCol bovine collagen-coated (5167; Advanced Biomatrix) 96-well Nunc Edge 2.0 evaporation barrier plates (14387223; Thermo Scientific). Cell culture medium and culture conditions followed suppliers’ recommendations. […] Cell viability was assessed at the end of the 3-day culture period using the In Vitro Toxicology Assay (Tox8-1KT; Sigma-Aldrich). In this assay the oxidoreduction indicator dye, resazurin, is colorometrically converted in proportion to the number of viable cells and measured by absorbance or fluorescence. Fluorescence was measured (excitation 540 nm; emission 590 nm) with a BMG Polarstar Galaxy Microplate Reader.
# [4] = biological target: T1, NTCP (Homo sapiens, UniProt Q14973); assay: Drug transporter inhibition, NTCP; type: in vitro ADME
# T1 construct: expressed in transfected cells
# T1 sequence (Q14973 whole entry): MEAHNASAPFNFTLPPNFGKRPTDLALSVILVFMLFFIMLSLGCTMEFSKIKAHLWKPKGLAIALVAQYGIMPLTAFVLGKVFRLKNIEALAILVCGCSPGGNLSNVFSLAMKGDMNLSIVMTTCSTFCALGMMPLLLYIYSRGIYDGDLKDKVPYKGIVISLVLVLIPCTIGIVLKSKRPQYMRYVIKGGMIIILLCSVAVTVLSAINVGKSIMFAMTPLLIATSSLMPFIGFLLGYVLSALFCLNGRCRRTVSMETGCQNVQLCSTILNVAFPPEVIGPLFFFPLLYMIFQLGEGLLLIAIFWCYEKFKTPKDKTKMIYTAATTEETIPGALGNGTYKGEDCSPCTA
# Procedure: (§2) Briefly, PGP and breast cancer resistance protein inhibition was assessed by measuring the bidirectional transport of substrates across cell monolayers in transwell culture plates. Efflux ratios were represented as (apical-to-basal flux)/(basal-to-apical flux), and efflux ratios were plotted relative to CRV431 concentration to derive IC50 values. Bile salt export pump (BSEP) and multidrug resistance protein (MRP)1 inhibition was assessed by measuring substrate accumulation in membrane vesicles prepared from insect Sf9 cells and recombinantly expressing BSEP and MRP2 (Genomembrane). Inhibition of all other transporters was assessed by measuring substrate accumulation in cells recombinantly expressing the transporter. Known inhibitors of each transporter were used as positive controls for the assays. […] Specific, ATP-dependent uptake was determined by subtracting uptake in negative control vesicles and cells not expressing the transporters, and secondly by subtracting uptake in the absence of ATP in the assays. Specific, ATP-dependent uptake was plotted as a function of CRV431 concentrations and fitted to nonlinear regressions to obtain IC50 values.
# [5] = system: NASH model in C57BL/6 mice; assay: Mouse NASH model (streptozotocin plus high-fat diet); type: in vivo; parameters: NAS score / Steatosis score / Inflammation score / Ballooning score: scale not given here
# Procedure: NASH was initiated in 2-day-old C57BL/6J male mice by intraperitoneal injection with 200 μg streptozotocin (S0130; Sigma-Aldrich) to disrupt pancreatic β cells, induce diabetes, and promote adiposity in the liver. Mice were weaned at 3 weeks of age and begun on a high-fat diet with 60%kcal fat (D12492N; Research Diets) for the duration of the studies. Additionally, mice with a regular diet (D12450KN; Research Diets) and without streptozotocin were included as negative controls. CRV431 was dissolved in a self-microemulsifying drug vehicle and then diluted with PBS and administered daily by oral gavage at 50 mg/kg per day. The start time and duration of vehicle and CRV431 treatments varied depending on the study.
# Blood and livers were collected at the end of the NASH and CCl4 studies. In some studies, serum or plasma was isolated from freshly-collected blood, whereas in other studies blood was frozen for later analysis of CRV431 concentration. Livers were immersion-fixed in zinc-formalin and paraffin-embedded for histologic processing. Liver sections were stained with hematoxylin and eosin for assessment of inflammation, ballooning, and steatosis, and with sirius red for assessment of collagen I and III (fibrosis). Sirius red staining was quantified by blinded analysis in one section per liver using ImageJ software. Scoring of steatosis, ballooning, and inflammation (sum of portal and lobular inflammation) in liver sections was based on criteria and training by a board-certified pathologist.
# Liver tumors were quantified in freshly collected livers at sacrifice in one NASH study ending at 30 weeks of age. Liver tumors were counted and their diameters measured with a ruler and classified as small (>0.1 cm diameter, but not exceeding 0.5 cm), medium (0.5–1 cm diameter), or large (>1 cm diameter).
# [6] = biological target: BCRP (Homo sapiens, UniProt Q9UNQ0)
# Chain of BCRP (Q9UNQ0 whole entry): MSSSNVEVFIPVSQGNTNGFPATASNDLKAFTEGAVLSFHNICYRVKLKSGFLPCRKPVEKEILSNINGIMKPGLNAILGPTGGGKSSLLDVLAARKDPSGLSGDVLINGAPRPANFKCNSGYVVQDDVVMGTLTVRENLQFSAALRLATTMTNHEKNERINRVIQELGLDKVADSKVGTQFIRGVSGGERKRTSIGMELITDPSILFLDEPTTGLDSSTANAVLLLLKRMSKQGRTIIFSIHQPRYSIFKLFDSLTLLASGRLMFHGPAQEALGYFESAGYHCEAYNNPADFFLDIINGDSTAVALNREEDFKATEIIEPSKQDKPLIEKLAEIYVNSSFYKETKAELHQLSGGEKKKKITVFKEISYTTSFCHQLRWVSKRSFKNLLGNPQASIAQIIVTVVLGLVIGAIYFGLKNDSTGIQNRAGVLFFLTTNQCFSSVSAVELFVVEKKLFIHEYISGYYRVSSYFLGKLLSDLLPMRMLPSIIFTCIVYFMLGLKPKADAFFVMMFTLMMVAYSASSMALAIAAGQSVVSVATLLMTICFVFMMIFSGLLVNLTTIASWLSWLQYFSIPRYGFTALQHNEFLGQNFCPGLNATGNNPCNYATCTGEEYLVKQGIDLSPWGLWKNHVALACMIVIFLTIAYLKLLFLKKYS
# Procedure: as §2
# [7] = biological target: OAT1 (Homo sapiens, UniProt Q4U2R8); assay: Drug transporter inhibition, OAT1; conditions: OAT1, HEK293
# Chain of OAT1 (Q4U2R8 whole entry): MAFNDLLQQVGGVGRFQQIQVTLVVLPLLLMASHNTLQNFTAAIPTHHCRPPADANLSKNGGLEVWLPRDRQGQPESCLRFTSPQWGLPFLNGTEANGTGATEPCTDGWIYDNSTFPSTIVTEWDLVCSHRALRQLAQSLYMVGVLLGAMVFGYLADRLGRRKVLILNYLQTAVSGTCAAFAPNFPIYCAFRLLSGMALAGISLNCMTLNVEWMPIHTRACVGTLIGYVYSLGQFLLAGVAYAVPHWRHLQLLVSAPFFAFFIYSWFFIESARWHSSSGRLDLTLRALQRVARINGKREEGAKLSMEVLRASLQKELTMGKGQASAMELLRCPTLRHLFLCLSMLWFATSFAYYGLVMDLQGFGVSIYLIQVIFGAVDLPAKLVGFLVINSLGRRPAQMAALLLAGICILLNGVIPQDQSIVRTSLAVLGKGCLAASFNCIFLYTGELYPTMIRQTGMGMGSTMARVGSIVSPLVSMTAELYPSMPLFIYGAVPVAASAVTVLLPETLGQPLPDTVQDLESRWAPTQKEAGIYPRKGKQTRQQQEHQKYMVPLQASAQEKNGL
# Procedure: (§3) Bile salt export pump (BSEP) and multidrug resistance protein (MRP)1 inhibition was assessed by measuring substrate accumulation in membrane vesicles prepared from insect Sf9 cells and recombinantly expressing BSEP and MRP2 (Genomembrane). Inhibition of all other transporters was assessed by measuring substrate accumulation in cells recombinantly expressing the transporter. Known inhibitors of each transporter were used as positive controls for the assays. […] Specific, ATP-dependent uptake was determined by subtracting uptake in negative control vesicles and cells not expressing the transporters, and secondly by subtracting uptake in the absence of ATP in the assays. Specific, ATP-dependent uptake was plotted as a function of CRV431 concentrations and fitted to nonlinear regressions to obtain IC50 values.
# [8] = biological target: OAT3 (Homo sapiens, UniProt Q8TCC7); assay: Drug transporter inhibition, OAT3; conditions: OAT3, HEK293
# Chain of OAT3 (Q8TCC7 whole entry): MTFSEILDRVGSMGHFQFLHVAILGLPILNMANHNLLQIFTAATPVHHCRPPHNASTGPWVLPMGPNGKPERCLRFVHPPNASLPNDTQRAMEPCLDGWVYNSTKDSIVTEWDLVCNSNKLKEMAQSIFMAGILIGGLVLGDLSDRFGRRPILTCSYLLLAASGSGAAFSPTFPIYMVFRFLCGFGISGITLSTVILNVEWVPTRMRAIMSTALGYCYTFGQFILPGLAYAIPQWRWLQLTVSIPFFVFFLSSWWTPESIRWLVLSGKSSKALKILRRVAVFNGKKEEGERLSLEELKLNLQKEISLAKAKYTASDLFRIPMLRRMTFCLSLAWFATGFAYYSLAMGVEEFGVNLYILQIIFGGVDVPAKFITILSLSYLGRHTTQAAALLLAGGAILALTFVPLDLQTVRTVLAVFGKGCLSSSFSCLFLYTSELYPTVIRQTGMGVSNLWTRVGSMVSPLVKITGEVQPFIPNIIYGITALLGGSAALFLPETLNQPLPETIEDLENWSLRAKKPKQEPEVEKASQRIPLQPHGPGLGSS
# Procedure: as §3
# [9] = CRV431 blood and liver exposures across mouse and rat studies; conditions: daily oral dosing, mice and rats
# From the text: Male and female Sprague–Dawley rats and male C57BL/6 mice from the carbon tetrachloride and NASH studies were used to evaluate CRV431 pharmacokinetics and distribution. […] Terminal whole blood and livers were collected and frozen until drug extraction. Liver samples were homogenized in PBS or 1% formic acid (0.1 g–0.4 g liver sample per ml solvent) with bead-based homogenizers (TissueLyser or Beadruptor). […] Liver CRV431 concentrations were normalized to the masses of the liver samples.
# [10] = CD3 + CD28 antibodies stimulation
# [11] = Week 3–14 Treatment, 50 mg/kg per day oral
# [12] = Week 8–14 Treatment, 50 mg/kg per day oral
# [13] = Week 20–30 Treatment, 50 mg/kg per day oral
smiles,measurement,setting,value
"CC[C@@H]1NC(=O)[C@H]([C@H](O)[C@H](C)CCCCCCNC(C)=O)N(C)C(=O)[C@H](C(C)C)N(C)C(=O)[C@H](CC(C)C)N(C)C(=O)[C@H](CC(C)C)N(C)C(=O)[C@@H](C)NC(=O)[C@H](C)NC(=O)[C@H](CC(C)C)N(C)C(=O)[C@H](C(C)C)NC(=O)[C@H](CC(C)C)N(C)C(=O)[C@@H](C)N(C)C1=O [CRV431] (cyclo(A[dA][NMeL][NMeL][NMeV][NMeThr(4R-Me,4-(CH2)6NHAc)][Abu][dNMeA][NMeL]V[NMeL]))",IC50,[1]; [10],292 nM
same,NFAT–Luc IC50 Fold Difference,[1]; CD3 + CD28 antibodies,65.4
same,NFAT–Luc IC50 Fold Difference,[1]; PMA + A23187,60.2
same,IC50,[1]; PMA + A23187 stimulation,205 nM
same,times less potent than CsA on Jurkat–NFAT cells,[1]; ratio of CRV431 and CsA IC50,~63 times
same,IC50,[2]; [10],312 nM
same,IL-2–Luc IC50 Fold Difference,[2]; CD3 + CD28 antibodies,34.6
same,IL-2–Luc IC50 Fold Difference,[2]; PMA + A23187,36.9
same,IC50,[2]; PMA + A23187 stimulation,300 nM
same,times less potent than CsA on Jurkat–IL-2 cells,[2]; ratio of CRV431 and CsA IC50,approximately 35 times
same,CC50,[3],23600 nM
same,lethality,"[3]; at the highest concentrations tested (up to 80 µM), 3 days",100%
same,fold lower activity than CsA toward sodium-dependent taurocholic acid cotransporting polypeptide,[4],45 fold
same,IC50,"[4]; NTCP, HEK293",45300 nM
same,Ballooning score,[5]; [11],0.9 ± 0.6
same,Blood glucose,[5]; [11],319 ± 79
same,Body weight,[5]; [11],33.5 ± 5.2 (P < 0.05)
same,Inflammation score,[5]; [11],1.5 ± 0.7
same,Liver weight,[5]; [11],1.28 ± 0.28
same,NAS score,[5]; [11],3.7 ± 2.2 (P < 0.05)
same,Sirius red %,[5]; [11],1.96 ± 0.72 (P < 0.05) %
same,Steatosis score,[5]; [11],1.3 ± 1.1
same,Ballooning score,[5]; [12],1.8 ± 0.5
same,Blood glucose,[5]; [12],463 ± 143
same,Body weight,[5]; [12],26.1 ± 5.1
same,Inflammation score,[5]; [12],2.4 ± 0.7
same,Liver weight,[5]; [12],1.35 ± 0.28
same,NAS score,[5]; [12],6.1 ± 1.1
same,Sirius red %,[5]; [12],1.02 ± 0.48 (P < 0.05) %
same,Steatosis score,[5]; [12],2.0 ± 0.5
same,Blood glucose,[5]; [13],405 ± 134
same,Body weight,[5]; [13],41.6 ± 8.9
same,Liver weight,[5]; [13],3.04 ± 1.19 (P < 0.05)
same,Sirius red %,[5]; [13],1.62 ± 0.57 (P < 0.05) %
same,Tumor number,[5]; [13],4.5 ± 4.4
same,Tumor score,"[5]; Week 20–30 Treatment, 50 mg/kg per day oral, 0–7 scale",2.25 ± 2.0 (P < 0.05)
same,reduction in the number and size of liver tumors,"[5]; late, oncogenic stage of the NASH model (abstract)",50%
same,fibrosis levels lower after CRV431 treatment compared with vehicle treatment,"[5]; three NASH model studies, 50 mg/kg per day oral, sirius red",37%–46%
same,livers lacking tumors,[5]; treatment from weeks 20 to 30,2 of 10
same,decrease of tumor burden (score of tumor number and size),"[5]; treatment from weeks 20 to 30, vs vehicle",52%
same,IC50,[6],23000 nM
same,CRV431 Inhibitory Potency vs. CsA,[7],Same (no inhibition)
same,IC50,[7],> 50000 nM
same,CRV431 Inhibitory Potency vs. CsA,[8],>21× more
same,IC50,[8],473 nM
same,fold higher levels in liver than in the blood,[9],5- to 15 fold
